Publication PMC8900816, “High-resolution structures of the bound effectors avadomide (CC-122) and iberdomide (CC-220) highlight advantages and limitations of the MsCI4 soaking system” (Acta Crystallographica. Section D, Structural Biology, 2022)

Target: T1, MsCI4 (Magnetospirillum gryphiswaldense, UniProt A4TVL0)
T1 construct: gene MGR_0879; wild-type single-domain bacterial cereblon homologue; pETHis1a, E. coli C41(DE3); His tag removed with TEV; three monomers per asymmetric unit; structural zinc; RED-NHS amine-labelled for MST
T1 sequence (A4TVL0 1-124): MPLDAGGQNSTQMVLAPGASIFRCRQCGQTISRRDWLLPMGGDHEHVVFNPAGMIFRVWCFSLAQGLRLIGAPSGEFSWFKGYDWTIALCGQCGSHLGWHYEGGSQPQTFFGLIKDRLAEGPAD
Assay: labelled microscale thermophoresis
Type: binding
Conditions: read-out: MsCI4 (K d, μM) / Labelled MST

| Structure (SMILES) | Kd [µM] |
| --- | --- |
| Cc1nc2cccc(N)c2c(=O)n1[C@H]1CCC(=O)NC1=O [Avadomide] | 4.84 ± 0.3 |
| O=C1CC[C@H](N2Cc3c(OCc4ccc(CN5CCOCC5)cc4)cccc3C2=O)C(=O)N1 [Iberdomide] | 0.409 ± 0.03 |
